Data from US20250221996A1, “HETEROCYCLIC COMPOUNDS, COMPOSITIONS THEREOF, AND METHODS OF TREATMENT THEREWITH” (BeiGene, Ltd., priority 2022, published 2025).

System: pERK1/2(THR202/TYR204) level in AsPC-1 cells
Test: pERK assay (HTRF) in AsPC-1 cell line
Type: cell-based
Settings: 2 h compound treatment
Method: AsPC-1 cell line was used in this study. Cells were maintained in RPMI-1640 supplemented with 10% fetal bovine serum (Thermo Fisher), 50 units/mL penicillin and streptomycin (Thermo Fisher) and kept at 37° C. in a humidified atmosphere of 5% CO2 in air. Cells were reinstated from frozen stocks that were laid down within 30 passages from the original cells purchased. 30000 cells per well were seeded into a 96-well plate and incubated overnight. Cells were treated with a 10-point dilution series. The final compound concentration is from 0 to 10 μM. After 2 h compound treatment, cells were lysed, and the pERK1/2(THR202/TYR204) level in the cell lysates was detected by HTRF kit (Cisbio). In brief, a total of 16 μL of cell lysate from each well of a 96-well plate was transferred to a 384-well white assay plate. Lysate from each well was incubated with 2 μL of Eu3+-cryptate (donor) labeled anti-phospho-ERK1/2 and 2 μL of D2 (acceptor) labeled anti-phospho-ERK1/2 antibodies (Cisbio) overnight in dark at room temperature. When donor and acceptor are in close proximity, excitation of the donor with laser triggers a Fluorescence Resonance Energy Transfer (FRET) towards the acceptor, which in turn fluoresces at 655 nm wavelength. FRET signals were measured using a PHERAstar FSX reader (BMG Labtech). IC50 determination was performed by fitting the curve of percent inhibition versus the log of the inhibitor concentration using Dotmatics.

| Structure (SMILES) | IC50 [nM] | IC50 (Homo sapiens, ASPC1, 2 h) [nM] |
| --- | --- | --- |
| N#Cc1c(N)sc2c(F)ccc(-c3c(C(F)(F)F)cc4c(N5CC6CCC(C5)N6)nc(OCC56COC(C(F)F)(C5)C6)nc4c3F)c12 (single isomer, unassigned) [Example 1-Isomer 1, 4-(4-(3,8-diazabicyclo[3.2.1]octan-3-yl)-2-((1-(difluoromethyl)-2-oxabicyclo[2.1.1]hexan-4-yl)methoxy)-8-fluoro-6-(trifluoromethyl)quinazolin-7-yl)-2-amino-7-fluorobenzo[b]thiophene-3-carbonitrile] | 2570 | – |
| N#Cc1c(N)sc2c(F)ccc(-c3c(C(F)(F)F)cc4c(N5CC6CCC(C5)N6)nc(OCC56COC(C(F)F)(C5)C6)nc4c3F)c12 (single isomer, unassigned) [Example 1-Isomer 2, 4-(4-(3,8-diazabicyclo[3.2.1]octan-3-yl)-2-((1-(difluoromethyl)-2-oxabicyclo[2.1.1]hexan-4-yl)methoxy)-8-fluoro-6-(trifluoromethyl)quinazolin-7-yl)-2-amino-7-fluorobenzo[b]thiophene-3-carbonitrile] | 84 | – |
| N#Cc1c(N)sc2c(F)ccc(-c3c(Cl)cc4c(N5CC6CCC(C5)N6)nc(OCC56COC(C5)C6)nc4c3F)c12 (single isomer, unassigned) [Example 2-Isomer 1, 4-(2-((2-oxabicyclo[2.1.1]hexan-4-yl)methoxy)-4-(3,8-diazabicyclo[3.2.1]octan-3-yl)-6-chloro-8-fluoroquinazolin-7-yl)-2-amino-7-fluorobenzo[b]thio phene-3-carbonitrile] | 160 | – |
| N#Cc1c(N)sc2c(F)ccc(-c3c(Cl)cc4c(N5CC6CCC(C5)N6)nc(OCC56COC(C5)C6)nc4c3F)c12 (single isomer, unassigned) [Example 2-Isomer 2, 4-(2-((2-oxabicyclo[2.1.1]hexan-4-yl)methoxy)-4-(3,8-diazabicyclo[3.2.1]octan-3-yl)-6-chloro-8-fluoroquinazolin-7-yl)-2-amino-7-fluorobenzo[b]thio phene-3-carbonitrile] | > 10000 | – |
| COC1(COc2nc(N3CC4CCC(C3)N4)c3cc(C(F)(F)F)c(-c4ccc(F)c5sc(N)c(C#N)c45)c(F)c3n2)CCOC1 (single isomer, unassigned) [Example 3-Isomer 3, 4-(4-(3,8-diazabicyclo[3.2.1]octan-3-yl)-8-fluoro-2-((3-methoxytetra hydrofuran-3-yl)methoxy)-6-(trifluoromethyl)quinazolin-7-yl)-2-amino-7-fluoro benzo[b]thiophene-3-carbonitrile] | 96 | – |
| COC1(COc2nc(N3CC4CCC(C3)N4)c3cc(C(F)(F)F)c(-c4ccc(F)c5sc(N)c(C#N)c45)c(F)c3n2)CCOC1 (single isomer, unassigned) [Example 3-Isomer 4, 4-(4-(3,8-diazabicyclo[3.2.1]octan-3-yl)-8-fluoro-2-((3-methoxytetra hydrofuran-3-yl)methoxy)-6-(trifluoromethyl)quinazolin-7-yl)-2-amino-7-fluoro benzo[b]thiophene-3-carbonitrile] | 273 | – |
| COC1(COc2nc(N3CC4CCC(C3)N4)c3cc(C(F)(F)F)c(-c4ccc(F)c5sc(N)c(C#N)c45)c(F)c3n2)CCOCC1 (single isomer, unassigned) [Example 4-Isomer 2, 4-(4-(3,8-diazabicyclo[3.2.1]octan-3-yl)-8-fluoro-2-((4-methoxytetrahydro-2H-pyran-4-yl)methoxy)-6-(trifluoromethyl)quinazolin-7-yl)-2-amino-7-fluorobenzo[b]thiophene-3 carbonitrile] | – | 100 |
| N#Cc1c(N)sc2c(F)ccc(-c3c(Cl)cc4c(N5C6CCC5CNC6)nc(OCC56COC(C5)C6)nc4c3F)c12 (single isomer, unassigned) [Example 5-Isomer 2, 4-(2-((2-oxabicyclo[2.1.1]hexan-4-yl)methoxy)-4-(3,8-diazabicyclo [3.2.1]octan-8-yl)-6-chloro-8-fluoroquinazolin-7-yl)-2-amino-7-fluorobenzo[b]thio phene-3-carbonitrile] | – | 44 |
| N#Cc1c(N)sc2c(F)ccc(-c3c(C(F)(F)F)cc4c(N5C6CCC5CNC6)nc(OCC56COC(C5)C6)nc4c3F)c12 (single isomer, unassigned) [Example 9-Isomer 1, 4-(2-((2-oxabicyclo[2.1.1]hexan-4-yl)methoxy)-4-(3,8-diazabicyclo[3.2.1]octan-8-yl)-8-fluoro-6-(trifluoromethyl)quinazolin-7-yl)-2-amino-7-fluorobenzo[b]thiophene-3-carbonitrile] | > 10000 | – |
| N#Cc1c(N)sc2c(F)ccc(-c3c(C(F)(F)F)cc4c(N5C6CCC5CNC6)nc(OCC56COC(C5)C6)nc4c3F)c12 (single isomer, unassigned) [Example 9-Isomer 2, 4-(2-((2-oxabicyclo[2.1.1]hexan-4-yl)methoxy)-4-(3,8-diazabicyclo[3.2.1]octan-8-yl)-8-fluoro-6-(trifluoromethyl)quinazolin-7-yl)-2-amino-7-fluorobenzo[b]thiophene-3-carbonitrile] | 103 | – |
| N#Cc1c(N)sc2c(F)ccc(-c3c(C(F)(F)F)cc4c(N5CC6CCC(C5)N6)nc(OCC5(C#N)CCOC5)nc4c3F)c12 (single isomer, unassigned) [Example 10-Isomer 1, 3-(((7-(2-amino-3-cyano-7-fluorobenzo[b]thiophen-4-yl)-4-(3,8-diazabicyclo[3.2.1]octan-3-yl)-8-fluoro-6-(trifluoromethyl)quinazolin-2-yl)oxy)methyl)tetrahydrofuran-3-carbonitrile] | > 10000 | – |
| N#Cc1c(N)sc2c(F)ccc(-c3c(C(F)(F)F)cc4c(N5CC6CCC(C5)N6)nc(OCC5(C#N)CCOC5)nc4c3F)c12 (single isomer, unassigned) [Example 10-Isomer 2, 3-(((7-(2-amino-3-cyano-7-fluorobenzo[b]thiophen-4-yl)-4-(3,8-diazabicyclo[3.2.1]octan-3-yl)-8-fluoro-6-(trifluoromethyl)quinazolin-2-yl)oxy)methyl)tetrahydrofuran-3-carbonitrile] | > 10000 | – |
| N#Cc1c(N)sc2c(F)ccc(-c3c(C(F)(F)F)cc4c(N5CC6CCC(C5)N6)nc(OCC5(C#N)CCOC5)nc4c3F)c12 (single isomer, unassigned) [Example 10-Isomer 3, 3-(((7-(2-amino-3-cyano-7-fluorobenzo[b]thiophen-4-yl)-4-(3,8-diazabicyclo[3.2.1]octan-3-yl)-8-fluoro-6-(trifluoromethyl)quinazolin-2-yl)oxy)methyl)tetrahydrofuran-3-carbonitrile] | 42 | – |
| N#Cc1c(N)sc2c(F)ccc(-c3c(C(F)(F)F)cc4c(N5CC6CCC(C5)N6)nc(OCC5(C#N)CCOC5)nc4c3F)c12 (single isomer, unassigned) [Example 10-Isomer 4, 3-(((7-(2-amino-3-cyano-7-fluorobenzo[b]thiophen-4-yl)-4-(3,8-diazabicyclo[3.2.1]octan-3-yl)-8-fluoro-6-(trifluoromethyl)quinazolin-2-yl)oxy)methyl)tetrahydrofuran-3-carbonitrile] | 56 | – |
| COCC12CC(COc3nc(N4CC5CCC(C4)N5)c4cc(C(F)(F)F)c(-c5ccc(F)c6sc(N)c(C#N)c56)c(F)c4n3)(CO1)C2 (single isomer, unassigned) [Example 11-Isomer 2, 4-(4-(3,8-diazabicyclo[3.2.1]octan-3-yl)-8-fluoro-2-((1-(methoxymethyl)-2-oxabicyclo[2.1.1]hexan-4-yl)methoxy)-6-(trifluoromethyl)quinazolin-7-yl)-2-amino-7-fluorobenzo[b]thiophene-3-carbonitrile] | – | 37 |
